Results published in patent US8969565B2, “Imidazo[1,2-b]pyridazine-based compounds, compositions comprising them, and methods of their use” (Lexicon Pharmaceuticals, Inc., priority 2012, dated 2015).

target: T1, AAK1 (Homo sapiens, UniProt Q2M2I8); test: HEK281 cell-based assay (phospho-mu2 Western blot in transfected HEK293F cells); settings: 3 hours incubation, read-out: CBA IC50
T1 construct: HA; expressed in transfected cells; host or cells: HEK293F
Experimental: HEK293F cells were cultured in media containing DMEM (Gibco, cat. #11965), 10% FBS (SAFC Biosciences, cat. #12103C), 1×GPS (glutamine, penicillin and streptomycin). On day one, cells were plated on a 10 cm dish so that they are ˜80% confluent at time of transfection. Roughly 12 million cells were in a 10 cm dish at time of transfection. On day two, each dish was transfected with 48 ug DNA and 144 ul Lipofectamine 2000 (Invitrogen, cat.#11668-019). The DNA was comprised of a mixture (per 10 cm dish) containing 3 ug AAK1/HA/pIRES (full length human, NCBI accession no. NP_055726.2), 45 μg Flag/AP2MI/pcDNA (full length human), and 1.5 ml OPTI-MEM. The Lipofectamine 2000 is made up of a mixture (per 10 cm dish) containing 144 μl Lipofectamine 2000 and 1.5 ml OPTI-MEM. Each mixture was transferred to individual 15 ml tubes and incubated at RT for 5 minutes, and then the two mixes were combined and incubated at RT for 20 minutes. Growth media was then aspirated from each 10 cm plate and replaced with 10 ml of DMEM+10% FBS (no GPS). Finally, 3 ml DNA/Lipofectamine mix was added to each 10 cm dish and mix gently followed by incubate of plate overnight at 37° C. and 5% CO2.
On day three, compounds were diluted in 100% DMSO at 1000× final concentration, followed by 3-fold serial dilutions for a total of 5 concentrations tested. Four compounds were tested per 10 cm dish. One ul of each compound dilution was then pipetted into a deep-well, 96-well plate, followed by addition of 500 μl DMEM+0.5% FBS into each well for a 2× final concentration of each compound. Cells were resuspended in a 10 cm dish by simple pipetting (HEK293 cells come off the plate that easy at this point) and then transferred to a 50 ml conical tube and pelleted by centrifugation at 1000 rpm for 5 min. Cell pellets were then resuspended in 2.75 ml DMEM+0.5% FBS per 10 cm dish and 100 μl of cell suspension transferred into each well of 96-well TC plate. Finally, 100 μl of 2× compound diluted in DMEM+0.5% FBS was then added into wells containing cell suspension for a 1× final concentration. Plates were then incubated at 37° C. and 5% CO2 for 3 hours followed by transferring of cell suspensions from each well into 12-tube PCR strips. The PCR strips were spun in a tip rack at 1000 rpm for 5 minutes to pellet cells and media was then removed by pipetting without disturbing the cell pellet.
To prepare for Western Blot analysis, cell pellets were resuspend in 40 ul 1×LDS-PAGE sample buffer (Invitrogen, cat.#NP0008)+2× Halt phophatase and protease inhibitor cocktail (Thermo Scientific, cat.#1861284), followed by sonicating each with microtip sonicator set at 5 for 8-10 seconds. Five ul of 10× NuPage Sample Reducing Agent (with 50 mM DTT) was to each sample followed by heat denaturing at 70 C for 10 min on PCR machine. A total of 10 μl per sample was loaded into each lane of a 4-20% Tris-Glycine Criterion 26-well gel (Biorad, cat.#345-0034) for the phospho-mu2 blot and 10 μl per lane in a 4-12% Bis-Tris (+MES buffer) NuPAGE 26-well gel (Invitrogen, cat.#WG1403BX10) for the mu2 blot. For controls, 2 ng of phospho-mu2 or 20 ng mu2/Flag proteins were loaded in the last well of each gel. After SDS-PAGE, samples on each gel were transferred to PVDF membrane using an iBlot and membranes were blocked for one hour in TBST+5% milk, followed by wash 3× for 5-10 min with TBST. Criterion gels were probed with rabbit anti-phospho-mu2 (1:5000; a rabbit polyclonal antibody produced by New England Peptide and affinity purified at Lexicon) in TBST+5% BSA, whereas, NuPAGE gels were probed with mouse anti-Flag (1:500; Sigma, cat.#F1804) in TBST+5% milk, and these primary antibodies were incubated overnight at 4° C. on a rocker.

T1 sequence (Q2M2I8 1-863 isoform Q2M2I8-2): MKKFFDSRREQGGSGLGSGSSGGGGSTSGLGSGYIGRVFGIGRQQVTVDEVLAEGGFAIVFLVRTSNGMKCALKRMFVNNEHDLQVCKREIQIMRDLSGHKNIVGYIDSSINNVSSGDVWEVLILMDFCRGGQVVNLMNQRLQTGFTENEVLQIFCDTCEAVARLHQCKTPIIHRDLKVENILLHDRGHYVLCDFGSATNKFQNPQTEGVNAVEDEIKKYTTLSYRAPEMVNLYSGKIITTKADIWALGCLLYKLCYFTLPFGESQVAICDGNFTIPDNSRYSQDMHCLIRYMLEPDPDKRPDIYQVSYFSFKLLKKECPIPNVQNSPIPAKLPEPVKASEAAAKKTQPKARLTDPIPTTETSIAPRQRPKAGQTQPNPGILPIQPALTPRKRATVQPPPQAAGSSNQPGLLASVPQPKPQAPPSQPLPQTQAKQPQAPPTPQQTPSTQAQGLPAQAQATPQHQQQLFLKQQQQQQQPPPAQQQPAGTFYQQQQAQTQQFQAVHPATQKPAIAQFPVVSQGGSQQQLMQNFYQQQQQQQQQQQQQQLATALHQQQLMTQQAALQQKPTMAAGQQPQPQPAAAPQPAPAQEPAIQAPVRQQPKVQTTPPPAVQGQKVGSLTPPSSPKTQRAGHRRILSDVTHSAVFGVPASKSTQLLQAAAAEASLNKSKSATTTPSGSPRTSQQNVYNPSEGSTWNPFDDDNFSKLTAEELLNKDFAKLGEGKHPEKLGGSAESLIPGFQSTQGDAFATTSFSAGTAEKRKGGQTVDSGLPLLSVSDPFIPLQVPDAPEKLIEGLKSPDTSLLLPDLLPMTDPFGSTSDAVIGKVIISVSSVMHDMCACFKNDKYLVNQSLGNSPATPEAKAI

Row | IC50 [nM] | SMILES
1 | ≤ 1000 | COc1cnccc1-c1cnc2ccc(NCCOC3CCCC3)nn12 [N-(2-(cyclopentyloxy)ethyl)-3-(3-methoxypyridin-4-yl)imidazo[1,2-b]pyridazin-6-amine]
2 | ≤ 1000 | CC(C)CCNc1ccc2ncc(-c3ccc(CN)cc3)n2n1 [3-(4-(aminomethyl)phenyl)-N-isopentylimidazo[1,2-b]pyridazin-6-amine]
3 | ≤ 1000 | NCc1ccc(-c2cnc3ccc(NCCCCCF)nn23)cc1 [3-(4-(aminomethyl)phenyl)-N-(5-fluoropentyl)imidazo[1,2-b]pyridazin-6-amine]
4 | ≤ 1000 | NCc1ccc(-c2cnc3ccc(NCC4CC4)nn23)cc1 [3-(4-(aminomethyl)phenyl)-N-(cyclopropylmethyl)imidazo[1,2-b]pyridazin-6-amine]
5 | ≤ 100 | CC(C)(C)OC(=O)N1CCC[C@H]1CNc1ccc2ncc(Br)n2n1 [(S)-tert-butyl 2-(((3-bromoimidazo[1,2-b]pyridazin-6-yl)amino)methyl)pyrrolidine-1-carboxylate]
6 | ≤ 100 | CCCCNc1nn2c(-c3ccc(CN)cc3)cnc2cc1C [[3-(4-Aminomethyl-phenyl)-7-methyl-imidazo[1,2-b]pyridazin-6-yl]-butyl-amine]
7 | ≤ 100 | NCc1ccc(-c2cnc3ccc(NCCOC4CCCC4)nn23)cc1 [3-(4-(aminomethyl)phenyl)-N-(2-(cyclopentyloxy)ethyl)imidazo[1,2-b]pyridazin-6-amine]
8 | ≤ 100 | COc1cc(F)ccc1-c1cnc2ccc(NCCN(C)C(=O)OC(C)C)nn12 [isopropyl (2-((3-(4-fluoro-2-methoxyphenyl)imidazo[1,2-b]pyridazin-6-yl)amino)ethyl)(methyl)carbamate]
9 | ≤ 1000 | CCCCNc1ccc2ncc(-c3ccnc(N)c3)n2n1 [3-(2-aminopyridin-4-yl)-N-butylimidazo[1,2-b]pyridazin-6-amine]
10 | ≤ 10 | COc1cnccc1-c1cnc2ccc(N3CCN(C(=O)OC(C)(C)C)CC3)nn12 [tert-butyl 4-(3-(3-methoxypyridin-4-yl)imidazo[1,2-b]pyridazin-6-yl)piperazine-1-carboxylate]
11 | ≤ 100 | CCCCNc1ccc2ncc(-c3ccc(CNC(C)(C)C)c(F)c3)n2n1 [N-butyl-3-(4-((tert-butylamino)methyl)-3-fluorophenyl)imidazo[1,2-b]pyridazin-6-amine]
12 | ≤ 1000 | CCCCNc1ccc2ncc(C(=O)Nc3ccc(OCCN)cc3)n2n1 [N-(4-(2-aminoethoxy)phenyl)-6-(butylamino)imidazo[1,2-b]pyridazine-3-carboxamide]
13 | ≤ 100 | CC(C)OC(=O)N(CCNc1ccc2ncc(-c3ccc(C(N)=O)cc3)n2n1)C(C)C [isopropyl (2-((3-(4-carbamoylphenyl)imidazo[1,2-b]pyridazin-6-yl)amino)ethyl)(isopropyl)carbamate]
14 | ≤ 100 | Cc1nc(C)c(-c2cnc3ccc(NCCN(C)C(=O)OC(C)C)nn23)s1 [isopropyl (2-((3-(2,4-dimethylthiazol-5-yl)imidazo[1,2-b]pyridazin-6-yl)amino)ethyl)(methyl)carbamate]
15 | ≤ 100 | CCCCNc1ccc2ncc(-c3ccncc3OC)n2n1 [N-butyl-3-(3-methoxypyridin-4-yl)imidazo[1,2-b]pyridazin-6-amine]
16 | ≤ 100 | CCCCNc1ccc2ncc(-c3ccc(C(=O)NCCN4CCCC4)cc3)n2n1 [4-(6-(butylamino)imidazo[1,2-b]pyridazin-3-yl)-N-(2-(pyrrolidin-1-yl)ethyl)benzamide]
17 | ≤ 100 | CCCCNc1ccc2ncc(-c3ccc(C(=O)NCCNC)cc3)n2n1 [4-(6-(butylamino)imidazo[1,2-b]pyridazin-3-yl)-N-(2-(methylamino)ethyl)benzamide]
18 | ≤ 100 | CC(C)(C)OC(=O)N1CCC[C@H]1CNc1ccc2ncc(Cl)n2n1 [(S)-tert-butyl 2-(((3-chloroimidazo[1,2-b]pyridazin-6-yl)amino)methyl)pyrrolidine-1-carboxylate]
19 | ≤ 1000 | CCCCNc1ccc2ncc(-c3ccc(CNCC4CCCO4)cc3)n2n1 (stereo not drawn) [N-butyl-3-(4-((((tetrahydrofuran-2-yl)methyl)amino)methyl)phenyl)imidazo[1,2-b]pyridazin-6-amine]
20 | ≤ 100 | CCCCNc1ccc2ncc(-c3ccc(OCCN)cc3)n2n1 [3-(4-(2-aminoethoxy)phenyl)-N-butylimidazo[1,2-b]pyridazin-6-amine]
21 | ≤ 1000 | NCc1ccc(-c2cnc3ccc(NCC4CCCC4)nn23)cc1 [3-(4-(aminomethyl)phenyl)-N-(cyclopentylmethyl)imidazo[1,2-b]pyridazin-6-amine]
22 | ≤ 100 | COc1ccccc1-c1cnc2ccc(NCCN(C)C(=O)OC(C)(C)C)nn12 [tert-butyl (2-((3-(2-methoxyphenyl)imidazo[1,2-b]pyridazin-6-yl)amino)ethyl)(methyl)carbamate]
23 | ≤ 100 | CC(=O)c1ccc(-c2cnc3ccc(NCCCN(C)C(=O)OC(C)C)nn23)s1 [isopropyl (3-((3-(5-acetylthiophen-2-yl)imidazo[1,2-b]pyridazin-6-yl)amino)propyl)(methyl)carbamate]
24 | ≤ 10 | COc1ccccc1-c1cnc2ccc(NC[C@@H]3CCCN3C(=O)OC(C)(C)C)nn12 [(S)-tert-butyl 2-(((3-(2-methoxyphenyl)imidazo[1,2-b]pyridazin-6-yl)amino)methyl)pyrrolidine-1-carboxylate]
25 | ≤ 1000 | CC(C)OCCNc1ccc2ncc(-c3cc[nH]n3)n2n1 [N-(2-isopropoxyethyl)-3-(1H-pyrazol-3-yl)imidazo[1,2-b]pyridazin-6-amine]
26 | ≤ 100 | COc1cnccc1-c1cnc2ccc(NCCN(C(=O)OCC(C)C)C(C)C)nn12 [isobutyl isopropyl(2-((3-(3-methoxypyridin-4-yl)imidazo[1,2-b]pyridazin-6-yl)amino)ethyl)carbamate]
27 | ≤ 100 | CCOC(=O)N(C)CCNc1ccc2ncc(-c3ccc(C(=O)NCCC(C)C)cc3)n2n1 [ethyl (2-((3-(4-(isopentylcarbamoyl)phenyl)imidazo[1,2-b]pyridazin-6-yl)amino)ethyl)(methyl)carbamate]
28 | ≤ 100 | C=C(C)c1cnc2ccc(NC[C@@H]3CCCN3C(=O)OC(C)C)nn12 [(S)-isopropyl 2-(((3-(prop-1-en-2-yl)imidazo[1,2-b]pyridazin-6-yl)amino)methyl)pyrrolidine-1-carboxylate]
29 | ≤ 100 | CC(C)(C)COCCNc1ccc2ncc(-c3ccc(CN)cc3)n2n1 [3-(4-(aminomethyl)phenyl)-N-(2-(neopentyloxy)ethyl)imidazo[1,2-b]pyridazin-6-amine]
30 | ≤ 100 | CNC(=O)c1ccc(-c2cnc3ccc(NCCN(C)C(=O)OC(C)C)nn23)cc1 [isopropyl methyl(2-((3-(4-(methylcarbamoyl)phenyl)imidazo[1,2-b]pyridazin-6-yl)amino)ethyl)carbamate]

Row | SMILES | IC50 [nM]
31 | CC(C)COCCNc1ccc2ncc(-c3ccc(CN)cc3)n2n1 [3-(4-(aminomethyl)phenyl)-N-(2-isobutoxyethyl)imidazo[1,2-b]pyridazin-6-amine] | ≤ 100
32 | COc1ccccc1-c1cnc2ccc(NCCOCC(C)C)nn12 [N-(2-isobutoxyethyl)-3-(2-methoxyphenyl)imidazo[1,2-b]pyridazin-6-amine] | ≤ 1000
33 | CC(C)COCCNc1ccc2ncc(-c3ccc(C(=O)NCCN4CCCC4)cc3)n2n1 [4-(6-((2-isobutoxyethyl)amino)imidazo[1,2-b]pyridazin-3-yl)-N-(2-(pyrrolidin-1-yl)ethyl)benzamide] | ≤ 100
